Consider 34 compounds from patent US9981909B2 (Janssen Pharmaceutica NV, priority 2008, dated 2018).

One test deals with rat 5-HT7 receptor (Rattus norvegicus (Rat), UniProt P32305). Nature of the test: r5-HT7 binding assay, competitive radioligand binding with [3H]5-CT. An outline of the steps: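 For antagonism, cells expressing the rat receptor are pretreated with compound (10 min) and stimulated with 100 nM 5-CT (20 min). Lysates are assayed for cAMP by competitive immunoassay. Binding uses [3H]5-CT competition on HEK-293 membranes, giving Ki.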
rat 5-HT7 receptor, sequence (P32305 1-435): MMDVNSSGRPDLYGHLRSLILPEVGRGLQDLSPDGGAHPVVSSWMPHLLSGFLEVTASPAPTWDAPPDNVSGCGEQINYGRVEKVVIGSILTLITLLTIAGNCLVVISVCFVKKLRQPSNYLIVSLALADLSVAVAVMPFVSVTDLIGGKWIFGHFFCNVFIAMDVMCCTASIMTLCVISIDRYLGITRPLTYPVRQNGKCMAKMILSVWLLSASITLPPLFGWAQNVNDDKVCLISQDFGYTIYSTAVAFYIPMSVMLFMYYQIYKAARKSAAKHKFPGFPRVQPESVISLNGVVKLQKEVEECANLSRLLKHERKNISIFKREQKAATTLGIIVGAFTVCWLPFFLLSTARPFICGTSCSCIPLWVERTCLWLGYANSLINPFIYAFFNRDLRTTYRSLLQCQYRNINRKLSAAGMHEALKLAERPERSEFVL

The target of the next test is human SERT (Homo sapiens (Human), UniProt P31645). The test is described as follows: human SERT binding assay with [3H]-citalopram on HEK-293 membranes. The settings on record: read-out: hSERT binding Ki. The method, then:
Receptor binding was performed using membrane fractions prepared from the HEK-293 cell line recombinantly expressing rat 5-HT7 receptors (NCBI accession NM_022938). Compound affinity for the rat 5-HT7 receptor subtype was evaluated by competitive radioligand binding assays using 5-carboxamido[^3H]tryptamine ([^3H]5-CT) (Amersham Biosciences, cat. 90000403) detection. HitHunter™ cAMP assays are in-vitro based competitive immunoassays. The assay was performed on the HEK-293 cell line stably transfected with r5-HT7 receptor. Cells were pre-incubated with test compounds for 10 minutes. For antagonist testing, the cells were then challenged with 100 nM 5-CT for 20 minutes. Cells were then lysed and cAMP measured according to manufacturers protocol (Amersham, cat. NET791250UC) or [^3H]mesulergine (Amersham, cat. TRK1041). The assay was performed on membranes prepared from HEK-293 cells stably transfected with h5-HT6. Following centrifugation, membranes were resuspended and incubated for 60 min at room temperature with 1.7 nM [^3H]LSD in the presence of increasing concentration of test compounds. Nonspecific binding was defined in the presence of 10 μM clozapine (Tocris, cat. TRK1068). Homogenized HEK-293 membranes expressing the human SERT were incubated in 50 mM Tris-HCl (pH 7.5), 120 mM NaCl, 5 mM KCl with [^3H]-citalopram (3 nM) with or without test compounds. Nonspecific binding was determined in the presence of 10 μM fluoxetine. Radioactivity readouts and Ki values were performed as previously described for r5-HT7. […] Compounds were assayed in their free form or as salts, as indicated in the Examples section above.

The mark [1] stands for this setting: rat 5-HT7 receptor, HEK-293 membranes.

Structures can show the parent of a compound that is named as a salt.

human SERT, sequence (P31645 whole entry): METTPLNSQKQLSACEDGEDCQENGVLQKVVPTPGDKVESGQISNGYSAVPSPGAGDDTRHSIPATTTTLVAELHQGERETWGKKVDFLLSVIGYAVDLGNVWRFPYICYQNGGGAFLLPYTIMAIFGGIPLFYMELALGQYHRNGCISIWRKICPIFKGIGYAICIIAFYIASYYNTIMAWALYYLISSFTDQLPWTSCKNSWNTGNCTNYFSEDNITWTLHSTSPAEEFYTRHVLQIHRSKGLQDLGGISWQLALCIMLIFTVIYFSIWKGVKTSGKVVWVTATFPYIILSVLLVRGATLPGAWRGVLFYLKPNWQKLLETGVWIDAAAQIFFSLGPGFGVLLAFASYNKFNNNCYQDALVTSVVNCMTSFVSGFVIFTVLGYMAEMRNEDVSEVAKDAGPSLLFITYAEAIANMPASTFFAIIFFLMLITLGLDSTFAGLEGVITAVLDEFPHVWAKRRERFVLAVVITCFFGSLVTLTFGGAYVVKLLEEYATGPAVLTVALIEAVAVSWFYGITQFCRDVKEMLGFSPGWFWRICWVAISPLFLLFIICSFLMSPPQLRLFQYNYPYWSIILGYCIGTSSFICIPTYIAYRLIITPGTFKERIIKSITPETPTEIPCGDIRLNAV

By Ki is commonly meant a measure of affinity in units of concentration, obtained from inhibition or displacement. Turning to `FC(COc1ccc(Cl)cc1OC1CNC1)c1ccccc1` (stereo not drawn) [Example 187, 3-[5-Chloro-2-(2-fluoro-2-phenyl-ethoxy)-phenoxy]-azetidine], the results for the inhibition constant (Ki) at rat 5-HT7 receptor (setting [1]) and at human SERT were 36 nM and 340 nM, respectively. The matching figures for `CC(Oc1ccc(Cl)cc1OC1CNC1)c1nc2ccccc2s1` (stereo not drawn) [Example 131, 2-[1-[2-(Azetidin-3-yloxy)-4-chloro-phenoxy]-ethyl]-benzothiazole]: 73 nM and 1360 nM.

For the compound `CC(Oc1ccc(Cl)cc1OC1CN(Cc2ccccc2)C1)c1cccc(C(F)(F)F)c1` (racemic) [Example 108, (±)-1-Benzyl-3-[5-chloro-2-[1-(3-trifluoromethyl-phenyl)-ethoxy]-phenoxy]-azetidine], the values for the Ki at rat 5-HT7 receptor (setting [1]) and on human SERT were 36 nM and 5000 nM, respectively. The matching figures for `CC(Oc1ccc(Cl)cc1OC1CN(C)C1)c1cccc(C(F)(F)F)c1` (racemic) [Example 109, (±)-3-[5-Chloro-2-[1-(3-trifluoromethyl-phenyl)-ethoxy]-phenoxy]-1-methyl-azetidine]: 5 nM and 2900 nM. Take `C[C@@H]1[C@H](Oc2cc(Br)ccc2OCc2cccc(F)c2)CN1Cc1ccccc1` (relative stereo) [Example 220, cis-1-Benzyl-3-[5-bromo-2-(3-fluoro-benzyloxy)-phenoxy]-2-methyl-azetidine]: the Ki at rat 5-HT7 receptor (rat 5-HT7, HEK-293 membranes) came to 493 nM; at human SERT, 789 nM. As to `COc1cccc2c1CC(Oc1ccc(Cl)cc1OC1CNC1)C2` (stereo not drawn) [Example 178, 3-[5-Chloro-2-(4-methoxy-indan-2-yloxy)-phenoxy]-azetidine], the Ki on rat 5-HT7 receptor (setting [1]) was found to be 17 nM; on human SERT it was 131 nM. For `FC1(F)Oc2ccc(COc3ccc(Cl)cc3OC3CNC3)cc2O1` [Example 86, 3-[5-Chloro-2-(2,2-difluoro-benzo[1,3]dioxol-5-ylmethoxy)-phenoxy]-azetidine] the same measures were 38 nM and 121 nM. With `C[C@@H]1[C@@H](Oc2ccc(Cl)cc2OC2CNC2)CN1Cc1ccccc1` (racemic) [Example 223, (±)-3-[5-Chloro-2-(trans-1-benzyl-2-methyl-azetidin-3-ol)-phenoxy]-azetidine], the Ki at rat 5-HT7 receptor (rat 5-HT7, HEK-293 membranes) came out at 145 nM; on human SERT, 9000 nM. Take `Fc1ccc(COc2ccc(Cl)cc2OC2CNC2)cc1C(F)(F)F` [Example 47, 3-[5-Chloro-2-(4-fluoro-3-trifluoromethyl-benzyloxy)-phenoxy]-azetidine]: the Ki was found to be 11 nM on rat 5-HT7 receptor (setting [1]) and 21 nM on human SERT. The matching figures for `FC(F)(F)c1ccc(COc2ccc(Cl)cc2OC2CNC2)cc1` [Example 43, 3-[5-Chloro-2-(4-trifluoromethyl-benzyloxy)-phenoxy]-azetidine]: 15 nM and 86 nM.

As to `CC(C)(C)N1CC(Oc2cc(Br)ccc2OCc2cccc(F)c2)C1` [Example 229, 3-[5-Bromo-2-(3-fluoro-benzyloxy)-phenoxy]-1-tert-butyl-azetidine], the Ki turned out to be 3 nM on rat 5-HT7 receptor (rat 5-HT7, HEK-293 membranes) and 925 nM on human SERT. As to `Cn1nnc2ccc(COc3ccc(Cl)cc3OC3CNC3)cc21` [Example 85, 6-[2-(Azetidin-3-yloxy)-4-chloro-phenoxymethyl]-1-methyl-1H-benzotriazole], the Ki was found to be 95 nM on rat 5-HT7 receptor (setting [1]) and 404 nM at human SERT. The matching figures for `Clc1ccc(OCc2ccc3ncsc3c2)c(OC2CNC2)c1` [Example 84, 6-[2-(Azetidin-3-yloxy)-4-chloro-phenoxymethyl]-benzothiazole]: 34 nM and 61 nM.

Turning to `CC(Oc1ccc(Cl)cc1OC1CNC1)c1ccc(F)c(C(F)(F)F)c1` (racemic) [Example 117, (±)-3-[5-Chloro-2-[1-(4-fluoro-3-trifluoromethyl-phenyl)-ethoxy]-phenoxy]-azetidine], the Ki at rat 5-HT7 receptor (setting [1]) is 41 nM; on human SERT, 71 nM. For `CSc1cccc(COc2ccc(Cl)cc2OC2CNC2)c1` [Example 26, 3-[5-Chloro-2-(3-methylsulfanyl-benzyloxy)-phenoxy]-azetidine] the same measures were 25 nM and 13 nM. For `CC(Oc1ccc(Cl)cc1OC1CNC1)c1ccccc1` (racemic) [Example 145, (±)-3-[5-Chloro-2-(1-phenyl-ethoxy)-phenoxy]-azetidine] the same measures were 40 nM and 773 nM. Turning to `Clc1ccc2c(c1)CC(Oc1ccc(Cl)cc1OC1CNC1)C2` (stereo not drawn) [Example 176, 3-[5-Chloro-2-(5-chloro-indan-2-yloxy)-phenoxy]-azetidine], the Ki at rat 5-HT7 receptor (setting [1]) was 24 nM; at human SERT, 75 nM. With `CC(C)C1(Oc2cc(Br)ccc2OCc2cccc(Cl)c2)CNC1` [Example 214, 3-[5-Bromo-2-(3-chloro-benzyloxy)-phenoxy]-3-isopropyl-azetidine], the Ki at rat 5-HT7 receptor (rat 5-HT7, HEK-293 membranes) came to 9000 nM; at human SERT it was 1690 nM. In the case of `Clc1ccc(OCC2CCc3ccccc3O2)c(OC2CNC2)c1` (stereo not drawn) [Example 165, 3-[5-Chloro-2-(chroman-2-ylmethoxy)-phenoxy]-azetidine], the Ki was 16 nM at rat 5-HT7 receptor (setting [1]) and 95 nM on human SERT. As to `CN1CC(Oc2cc(Cl)ccc2OCc2cc(CO)c(C(F)(F)F)o2)C1` [Example 77], the Ki on rat 5-HT7 receptor (setting [1]) was 153 nM; at human SERT it was 5000 nM.

In the case of `Cc1nc(-c2cccc(COc3ccc(Cl)cc3OC3CNC3)c2)no1` [Example 31, 3-[3-[2-(Azetidin-3-yloxy)-4-chloro-phenoxymethyl]-phenyl]-5-methyl-[1,2,4]oxadiazole hydrochloride], the Ki on rat 5-HT7 receptor (setting [1]) worked out at 100 nM; on human SERT it was 90 nM. For `Clc1ccc(OCc2csc(-c3cccs3)n2)c(OC2CNC2)c1` [Example 28, 4-[2-(Azetidin-3-yloxy)-4-chloro-phenoxymethyl]-2-thiophen-2-yl-thiazole] the same measures were 49 nM and 683 nM.

For `FC(F)(F)Oc1ccc(COc2ccc(Cl)cc2OC2CNC2)cc1` [Example 42, 3-[5-Chloro-2-(4-trifluoromethoxy-benzyloxy)-phenoxy]-azetidine], the figures for the inhibition constant Ki on rat 5-HT7 receptor (setting [1]) and on human SERT were 35 nM and 578 nM, respectively. Take `CC1(Oc2cc(Br)ccc2OCc2cccc(Cl)c2)CNC1` [Example 212, 3-[5-Bromo-2-(3-chloro-benzyloxy)-phenoxy]-3-methyl-azetidine]: the Ki at rat 5-HT7 receptor (rat 5-HT7, HEK-293 membranes) is 53 nM; at human SERT, 41 nM. With `Clc1ccc(OC2CC(c3ccccc3)C2)c(OC2CNC2)c1` (stereo not drawn) [Example 228, 3-[5-Chloro-2-(3-phenyl-cyclobutoxy)-phenoxy]-azetidine], the Ki came to 9 nM at rat 5-HT7 receptor (rat 5-HT7, HEK-293 membranes) and 72 nM on human SERT.

Regarding `Clc1ccc(OCc2cccnc2)c(OC2CNC2)c1` [Example 52, 3-[2-(Azetidin-3-yloxy)-4-chloro-phenoxymethyl]-pyridine], the results for the Ki on rat 5-HT7 receptor (setting [1]) and on human SERT were 110 nM and 89 nM, respectively. For `C[C@H](Oc1ccc(Cl)cc1OC1CNC1)c1cccc(C(F)(F)F)c1` [Example 102, (S)-3-[5-Chloro-2-[1-(3-trifluoromethyl-phenyl)-ethoxy]-phenoxy]-azetidine trifluoroacetate] the same measures were 376 nM and 954 nM. As to `CC(Oc1ccc(Cl)cc1OC1CN(C(C)(C)C)C1)c1cccc(C(F)(F)F)c1` (stereo not drawn) [Example 231, 1-tert-Butyl-3-[5-chloro-2-[1-(3-trifluoromethyl-phenyl)-ethoxy]-phenoxy]-azetidine], the Ki on rat 5-HT7 receptor (rat 5-HT7, HEK-293 membranes) was determined as 15 nM; at human SERT, 4480 nM. Regarding `Clc1ccc(OCc2ccccn2)c(OC2CNC2)c1` [Example 51, 2-[2-(Azetidin-3-yloxy)-4-chloro-phenoxymethyl]-pyridine], the inhibition constant (Ki) stood at 387 nM on rat 5-HT7 receptor (setting [1]) and 86 nM on human SERT. For `CC(Oc1ccc(Cl)cc1OC1CNC1)c1ccc(Cl)cc1` (racemic) [Example 123, (±)-3-[5-Chloro-2-[1-(4-chloro-phenyl)-ethoxy]-phenoxy]-azetidine] the same measures were 42 nM and 25 nM.

Consider `CS(=O)(=O)c1cccc(COc2ccc(Cl)cc2OC2CNC2)c1` [Example 27, 3-[5-Chloro-2-(3-methanesulfonyl-benzyloxy)-phenoxy]-azetidine], for which the Ki at rat 5-HT7 receptor (setting [1]) was 229 nM; on human SERT, 1680 nM.

As for `CC(Oc1ccc(Br)cc1OC1CNC1)c1cccc(OC(F)(F)F)c1` (racemic) [Example 110, (±)-3-[5-Bromo-2-[1-(3-trifluoromethoxy-phenyl)-ethoxy]-phenoxy]-azetidine], the Ki on rat 5-HT7 receptor (setting [1]) came to 90 nM; on human SERT it was 554 nM.

As to `Cc1noc(COc2ccc(Cl)cc2OC2CNC2)n1` [Example 239, 5-[2-(Azetidin-3-yloxy)-4-chloro-phenoxymethyl]-3-methyl-[1,2,4]oxadiazole], the Ki at rat 5-HT7 receptor (rat 5-HT7, HEK-293 membranes) is 233 nM. Same read-out and setting: then `CC1(Oc2cc(Br)ccc2OCc2cccc(C(F)(F)F)c2)CNC1` [Example 217], with 34 nM.
